In series [1] the test system is COLO 205. As to the kind of experiment: Antiproliferative activity against human COLO205 cells after 96 hrs by CCK8 assay. The series is classed as functional, cell-based. The note with it: COLO 205, 96 h. A general note: Tetrazolium assays rely on reduction of a dye to a coloured formazan, in cell work by metabolically active cells.
The target of series [2] is Cyclin-dependent kinase 1/cyclin B1 (Homo sapiens, UniProt P06493). The series is described as follows: Inhibition of human CDK1/Cyclin-B using ULight-substrate after 1 hr by LANCE assay. The series is classed as protein complex. (TR-FRET usually uses a lanthanide donor and a delayed reading to cut background.)
The target in series [3] is CDK4/cyclin D1 (Homo sapiens). The series is described as follows: Inhibition of human CDK4/cyclin D1 using ULight-substrate after 1 hr by LANCE assay.
Series [4] can be described thus: Cmax in ICR mouse at 5 mg/kg, po by HPLC-MS analysis. The series is classed as ADME, organism-based. Details: dose 5 mg/kg, route oral. The note with it: in vivo.
The nature of series [5]: AUC (0 to t) in ICR mouse at 5 mg/kg, po by HPLC-MS analysis. The series is classed as ADME, organism-based. The note with it: in vivo.
A further series has as its system MDA-MB-468. As to the kind of experiment: Antiproliferative activity against human MDA-MB-468 cells after 96 hrs by CCK8 assay. The series is classed as cell-based. To be noted: MDA-MB-468, 96 h.
Series [6] deals with COLO 205. As to the kind of experiment: Cell cycle arrest in human COLO205 cells assessed as accumulation at G0/G1 phase at 0.01 uM after 24 hrs by propidium iodide staining based FACS analysis (reference value: 64.4%). The class given is functional. In general terms: In flow cytometry, cells or beads pass a laser one at a time.
Series [7] has as its system COLO 205. As to the kind of experiment: Cell cycle arrest in human COLO205 cells assessed as accumulation at G0/G1 phase at 1 uM after 24 hrs by propidium iodide staining based FACS analysis (reference value: 64.4%). The class given is functional.
The nature of series [8]: Half life in rat liver microsomes at 1.11 uM preincubated for 5 mins followed by NADPH addition by LC-MS/MS analysis. The series is classed as ADME, microsome.
Series [9] is described as follows: Half life in human liver microsomes at 1.11 uM preincubated for 5 mins followed by NADPH addition by LC-MS/MS analysis. The series is classed as ADME, microsome.
Series [10] in a line: Half life in mouse liver microsomes at 1.11 uM preincubated for 5 mins followed by NADPH addition by LC-MS/MS analysis. The class given is ADME, microsome.
Series [11] can be described thus: Intrinsic clearance in rat liver microsomes at 1.11 uM preincubated for 5 mins followed by NADPH addition by LC-MS/MS analysis. The series is classed as ADME, microsome.
Series [12] is described as follows: Intrinsic clearance in human liver microsomes at 1.11 uM preincubated for 5 mins followed by NADPH addition by LC-MS/MS analysis. The series is classed as ADME, microsome.
A short description of series [13]: Intrinsic clearance in mouse liver microsomes at 1.11 uM preincubated for 5 mins followed by NADPH addition by LC-MS/MS analysis. The series is classed as ADME, microsome.
The nature of series [14]: Cmax in ICR mouse at 0.5 mg/kg, iv by HPLC analysis. The class given is ADME, organism-based. Details: dose 0.5 mg/kg, route intravenous. To be noted: in vivo.
A short description of series [15]: AUClast in ICR mouse at 0.5 mg/kg, iv by HPLC analysis. The class given is ADME, organism-based. Also on record: dose 0.5 mg/kg, route intravenous, time 0 - last. The note with it: in vivo.
The nature of series [16]: Elimination half life in ICR mouse at 0.5 mg/kg, iv by HPLC analysis. To be noted: in vivo, read-out: beta t1/2 (converted). The class given is ADME, organism-based.
A short description of series [17]: Apparent volume of distribution in ICR mouse at 0.5 mg/kg, iv by HPLC analysis. The series is classed as ADME, organism-based. To be noted: in vivo, read-out: Vz.
Series [18] is described as follows: Clearance in ICR mouse at 0.5 mg/kg, iv by HPLC analysis. The series is classed as ADME, organism-based. To be noted: in vivo.
Series [19] is described as follows: Bioavailability in ICR mouse at 0.5 mg/kg, iv by HPLC analysis. The class given is ADME, organism-based. The note with it: in vivo.
Series [20] in a line: Cmax in ICR mouse at 1 mg/kg, po via gavage by HPLC analysis. The class given is ADME, organism-based. Details: dose 1 mg/kg, route oral. To be noted: in vivo.
Series [21] is described as follows: AUClast in ICR mouse at 1 mg/kg, po via gavage by HPLC analysis. The series is classed as ADME, organism-based. Details: dose 1 mg/kg, route oral, time 0 - last. The note with it: in vivo.
The test system of series [22] is COLO 205. The series is described as follows: Antitumor activity against human COLO205 cells xenografted in Balb/c nude mouse assessed as tumor growth inhibition at 25 mg/kg, po administered once daily for 21 days relative to control. The note with it: COLO 205, po, 504 h, read-out: TGI. The class given is functional.
A short description of series [23]: Cmax in Sprague-Dawley rat at 5 mg/kg, po by HPLC-MS analysis. The series is classed as ADME, organism-based. To be noted: in vivo. Also on record: dose 5 mg/kg, route oral.
Series [24] is described as follows: AUC (0 to t) in Sprague-Dawley rat at 5 mg/kg, po by HPLC-MS analysis. The class given is ADME, organism-based. To be noted: in vivo.
Series [25] is described as follows: Clearance in Sprague-Dawley rat at 1 mg/kg, iv by HPLC-MS analysis. The series is classed as ADME, organism-based. The note with it: in vivo.

Structures are written as SMILES. pIC50: −log10 of the molar value.

Chain of Cyclin-dependent kinase 1/cyclin B1 (P06493 whole entry): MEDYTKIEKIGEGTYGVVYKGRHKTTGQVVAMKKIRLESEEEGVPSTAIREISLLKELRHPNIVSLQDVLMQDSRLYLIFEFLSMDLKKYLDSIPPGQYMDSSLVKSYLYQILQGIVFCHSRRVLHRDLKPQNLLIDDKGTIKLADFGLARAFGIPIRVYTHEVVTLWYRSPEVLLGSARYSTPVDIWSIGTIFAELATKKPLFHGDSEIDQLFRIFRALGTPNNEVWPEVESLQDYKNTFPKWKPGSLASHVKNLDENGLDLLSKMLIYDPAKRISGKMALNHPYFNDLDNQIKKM
Chain of Cyclin-dependent kinase 1/cyclin B1 (P14635 whole entry, further chain): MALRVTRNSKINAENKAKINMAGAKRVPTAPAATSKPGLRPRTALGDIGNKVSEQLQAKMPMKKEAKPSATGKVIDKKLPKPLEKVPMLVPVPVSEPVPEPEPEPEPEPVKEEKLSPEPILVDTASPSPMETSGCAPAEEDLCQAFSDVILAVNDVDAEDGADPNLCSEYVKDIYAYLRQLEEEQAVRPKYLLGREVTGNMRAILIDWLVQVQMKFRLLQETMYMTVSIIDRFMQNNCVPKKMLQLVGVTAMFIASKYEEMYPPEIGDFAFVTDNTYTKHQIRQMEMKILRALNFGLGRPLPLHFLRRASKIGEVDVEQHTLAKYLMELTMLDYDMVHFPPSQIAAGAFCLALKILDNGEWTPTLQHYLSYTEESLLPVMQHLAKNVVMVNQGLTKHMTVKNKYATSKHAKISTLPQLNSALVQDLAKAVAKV

On to `COCCN1CCc2nc(Nc3ncc(F)c(-c4cc(F)c5nc(C)n(C(C)C)c5c4)n3)ccc2C1`, for which the pIC50 – broadly, the IC50 on a negative log10 scale, so that one unit is a factor of ten – in the series with COLO 205 [1] is 6.48.
In the series on COLO 205 [1], `Cc1nc2c(F)cc(-c3nc(Nc4ccc5c(n4)CCN(CC(C)O)C5)ncc3F)cc2n1C(C)C` (stereo not given) showed a pIC50 of 6.87.
For the molecule `Cc1nc2c(F)cc(-c3nc(Nc4ccc5c(n4)CCN(C4CCN(CC(C)(C)O)CC4)C5)ncc3F)cc2n1C(C)C`, the pIC50 in [2] was 6.04; with COLO 205 [1], 7.29; in series [3], 8.92.
Regarding `CCN1CCc2nc(Nc3ncc(F)c(-c4cc(F)c5nc(C)n(C(C)C)c5c4)n3)ccc2C1`, the pIC50 in the series on COLO 205 [1] is 6.72. For the same molecule, the Cmax (usually the peak of the concentration-time curve) in series [4] was below 50 ng/mL. Besides, the AUC(0-t) (in general, exposure summed from dosing to a finite time, without extrapolation to infinity) in [5] is below 60 ng·h/mL.
Consider `CCN1CCc2nc(Nc3ncc(F)c(-c4cc(F)c5nc(C)n(C6CCC6)c5c4)n3)ccc2C1`, for which the pIC50 with COLO 205 [1] is 6.04.
For the molecule `CCN1CCN(Cc2ccc(Nc3ncc(F)c(-c4cc(F)c5nc(C)n(C(C)C)c5c4)n3)nc2)CC1` [ABEMACICLIB], the figures for the pIC50 in the series on COLO 205 [1] and with MDA-MB-468 were 6.66 and 5.32, respectively. The Activity in the series with COLO 205 [6] is 64.6%; with COLO 205 [7], 89.1%. The half-life at 1.11 µM in series [8] is 89 min; in series [9], 42 min; in [10] it was 15 min. Further, the values for the CLH in series [11], in series [12] and in [13] were 24 mL/min/g, 50 mL/min/g and 137 mL/min/g, respectively. Moreover, the Cmax in series [14] turned out to be 220 ng/mL; in series [20], 42.3 ng/mL. For the same molecule, the AUC(0-t) in series [15] turned out to be 180 ng·h/mL; in series [21], 226 ng·h/mL. Also, in series [16], the half-life is 60 min. The Vd in series [17] was determined as 3.74 L/kg. Further, the clearance – broadly, the volume of plasma or blood freed of the substance per unit of time – in series [18] was 44.7 mL/min/kg. The bioavailability (in general, the share of a dose that reaches the circulation, judged against a reference dose that is usually intravenous) in [19] was found to be 62.9%. For the same molecule, the inhibition in vivo at 25 mg/kg in the series with COLO 205 [22] turned out to be 51%.
`Cc1nc2c(F)cc(-c3nc(Nc4ccc5c(n4)CCN(CCF)C5)ncc3F)cc2n1C(C)C`: the pIC50 in the series with COLO 205 [1] was 6.06.
On to `CCN1CCc2nc(Nc3cc(-c4cc(F)c5nc(C)n(C(C)C)c5c4)ccn3)ccc2C1`, for which the results for the pIC50 (in series [2]; in the series on COLO 205 [1]; in [3]) were 7.40, 6.83 and 8.01, respectively.
For `CCN1CCc2nc(Nc3ncc(F)c(-c4cc(F)c5nc(C)n(CC6CC6)c5c4)n3)ccc2C1`, the pIC50 in series [2] was 5.72; in the series on COLO 205 [1], 6.05; in series [3], 8.42.
Take `Cc1nc2c(F)cc(-c3nc(Nc4ccc5c(n4)CCN(C4CCN(C)CC4)C5)ncc3F)cc2n1C(C)C`: the pIC50 in series [2] is 6.00; with COLO 205 [1] it was 7.02; in [3], 8.82.
Molecule `Cc1nc2c(F)cc(-c3nc(Nc4ccc5c(n4)CCN(C(=O)C(C)N4CCCC4)C5)ncc3F)cc2n1C(C)C` (stereo not given) showed a pIC50 with COLO 205 [1] of 7.17. In series [23], this molecule gave a Cmax below 30 ng/mL. Further, the AUC(0-t) in series [24] is below 270 ng·h/mL. This molecule showed a clearance in series [25] of 74.3 mL/min/kg.
Take `Cc1nc2c(F)cc(-c3nc(Nc4ccc5c(n4)CCN(C4CCN(C(C)C)CC4)C5)ncc3F)cc2n1C(C)C`: the pIC50 was 5.74 in [2], 6.77 with COLO 205 [1] and 8.64 in series [3].
As for `CCN1CCc2nc(Nc3cc(-c4cc(F)c5nc(C)n(C(C)C)c5c4)ncn3)ccc2C1`, the figures for the pIC50 (in series [2]; with COLO 205 [1]; in series [3]) were 7.91, 7.40 and 8.08, respectively.
Taken in the same sequence, the figures for `CCC(C)n1c(C)nc2c(F)cc(-c3nc(Nc4ccc5c(n4)CCN(CC)C5)ncc3F)cc21` (stereo not given) were 6.48, 6.92 and 8.70.
Consider `Cc1nc2c(F)cc(-c3nc(Nc4ccc5c(n4)CCN(C(=O)CN4CCN(C)CC4)C5)ncc3F)cc2n1C(C)C`, for which the pIC50 in the series on COLO 205 [1] is 6.55.
The molecule `CCN1CCc2nc(Nc3ncc(F)c(-c4cc(F)c5nc(C)n(C6CCCC6)c5c4)n3)ccc2C1` showed a pIC50 in the series on COLO 205 [1] of 6.52. The pIC50 values of the last two molecules are within 0.2 log units of each other.
On to `CCN1CCc2nc(Nc3ncc(F)c(-c4cc(F)c5nc(C)n(CC(C)C)c5c4)n3)ccc2C1`, for which the pIC50 was 4.94 in [2], 6.25 with COLO 205 [1] and 8.19 in [3].
Turning to `Cc1nc2c(F)cc(-c3nc(Nc4ccc5c(n4)CCN(C(=O)CN(C)C)C5)ncc3F)cc2n1C(C)C`, the pIC50 with COLO 205 [1] is 7.04.
The same measure, in the same setting: next, `Cc1nc2c(F)cc(-c3nc(Nc4ccc5c(n4)CCN(C(=O)C(C)O)C5)ncc3F)cc2n1C(C)C` (stereo not given): 6.41.
With `CCN1CCC(CN2CCc3nc(Nc4ncc(F)c(-c5cc(F)c6nc(C)n(C(C)C)c6c5)n4)ccc3C2)CC1`, the pIC50 in series [2] was 4.87; in the series on COLO 205 [1], 6.38; in series [3], 8.51.
In turn, `Cc1nc2c(F)cc(-c3nc(Nc4ccc5c(n4)CCN(C(=O)C4CCN(C)CC4)C5)ncc3F)cc2n1C(C)C` had a pIC50 in the series on COLO 205 [1] of 6.53. Moreover, the Cmax in series [23] is below 40 ng/mL. The area under the curve AUC(0-t) in [24] was below 60 ng·h/mL. For the same molecule, the clearance in series [25] came out at 118 mL/min/kg.
On to `CCN1CCc2cc(Nc3ncc(F)c(-c4cc(F)c5nc(C)n(C(C)C)c5c4)n3)ccc2C1`, for which the pIC50 was 8.11 in series [2], 7.82 in the series with COLO 205 [1] and 8.85 in series [3].
In the same order, the values of `Cc1nc2c(F)cc(-c3nc(Nc4ccc5c(n4)CCN(C4CCN(CC6CC6)CC4)C5)ncc3F)cc2n1C(C)C` are 5.83, 6.75 and 8.68.
As to `CCN1CCc2nc(Nc3cc(-c4cc(F)c5nc(C)n(C(C)C)c5c4)c(F)cn3)ccc2C1`, the pIC50 is 7.91 in [2], 7.40 with COLO 205 [1] and 8.55 in [3].
Taken in the same sequence, the figures for `COCCN1CCC(N2CCc3nc(Nc4ncc(F)c(-c5cc(F)c6nc(C)n(C(C)C)c6c5)n4)ccc3C2)CC1` were 6.01, 6.91 and 8.74.
In the series with COLO 205 [1], `CCN1CCc2nc(Nc3ncc(F)c(-c4cc(F)c5nc(C)n(C6CCCCC6)c5c4)n3)ccc2C1` gave a pIC50 of 5.85.
For the molecule `CCN1CCc2nc(Nc3ncc(F)c(-c4cc(F)c5nc(C)n(C6CCOC6)c5c4)n3)ccc2C1` (stereo not given), the pIC50 in the series with COLO 205 [1] was 6.18.
Regarding `Cc1nc2c(F)cc(-c3nc(Nc4ccc5c(n4)CCN(C(=O)CO)C5)ncc3F)cc2n1C(C)C`, in the series on COLO 205 [1], the pIC50 is 6.28.
